Converted amounts (≈) assume the structure as drawn. “And” between values parts separate entries of the source, which are not always exact repeats. Equal values may be shown once. Read-outs that look alike come from different tables or passages of the source.
Columns and labels:
[1] = system: Escherichia coli LeuRS; conditions: read-out: IC50 (E. coli LeuRS); binds to the editing site; cited from earlier work
[2] = system: Gram-negative pathogens; conditions: cited from earlier work
[3] = system: M. tuberculosis LeuRS; conditions: read-out: M. tuberculosis LeuRS IC50; cited from earlier work
[4] = system: Mycobacterium tuberculosis; conditions: M. tuberculosis; cited from earlier work
[5] = system: MRSA (ATCC BAA-1762); test: Time-kill experiments
[6] = system: S. aureus; conditions: previously reported; cited from earlier work
[7] = biological target: T1, S. aureus LeuRS (saLeuRS) (Staphylococcus aureus, UniProt Q2FXH2); test: radiolabeled LeuRS aminoacylation assay; type: biochemical
T1 sequence (Q2FXH2 1-805): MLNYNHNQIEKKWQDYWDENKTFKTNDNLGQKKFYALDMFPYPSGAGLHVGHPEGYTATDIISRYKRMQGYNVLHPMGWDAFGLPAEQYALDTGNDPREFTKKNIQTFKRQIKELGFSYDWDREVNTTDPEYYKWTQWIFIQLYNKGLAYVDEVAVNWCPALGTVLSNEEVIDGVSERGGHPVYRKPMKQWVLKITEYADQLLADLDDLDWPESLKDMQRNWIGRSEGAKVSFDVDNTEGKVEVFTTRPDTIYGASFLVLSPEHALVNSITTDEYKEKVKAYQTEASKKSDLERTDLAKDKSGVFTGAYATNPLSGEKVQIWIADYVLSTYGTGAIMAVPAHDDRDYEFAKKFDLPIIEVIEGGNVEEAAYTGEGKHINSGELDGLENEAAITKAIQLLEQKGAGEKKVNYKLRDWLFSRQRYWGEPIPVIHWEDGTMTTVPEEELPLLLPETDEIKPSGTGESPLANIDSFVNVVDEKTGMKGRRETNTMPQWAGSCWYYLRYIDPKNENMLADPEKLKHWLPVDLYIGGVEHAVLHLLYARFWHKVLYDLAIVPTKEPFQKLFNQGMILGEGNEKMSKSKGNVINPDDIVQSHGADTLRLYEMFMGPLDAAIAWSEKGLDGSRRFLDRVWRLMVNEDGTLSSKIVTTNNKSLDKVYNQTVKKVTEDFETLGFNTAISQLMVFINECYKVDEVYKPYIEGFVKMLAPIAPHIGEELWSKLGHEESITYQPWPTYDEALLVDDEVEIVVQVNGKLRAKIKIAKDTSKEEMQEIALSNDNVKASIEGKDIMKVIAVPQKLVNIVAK

[8] = system: saLeuRS; conditions: read-out: IC50 (LeuRS); previously reported; ref 25 (Xia et al.); cited from earlier work
[9] = system: MRSA (ATCC BAA-1762) resistant mutants; test: microbe, parasite or virus in culture; conditions: Staphylococcus aureus, ATCCBAA1762|MRSA, read-out: MIC of resistant colonies
[10] = Cytotoxicity, MTT cell viability assay; type: cell-based; conditions: monkey, vero cells
[11] = system: MRSA (ATCC BAA-1762); test: Post-antibiotic effect; conditions: 1 h exposure
[12] = system: MRSA (ATCC BAA-1762) resistant mutants; conditions: for MIC shift: vs wild-type MRSA
[13] = system: MRSA ATCC BAA-1762; test: MIC by broth microdilution; type: cell-based, Staphylococcus aureus
[14] = system: Vero cells; test: Cytotoxicity, MTT cell viability assay; type: cell-based; conditions: Vero cells, 24 h, MTT

In the case of `NC[C@H]1OB(O)c2c(OCCCO)cccc21` [AN3365], the IC50 [1] is given as 310 nM and the MIC [2] is given as 0.5 to 4 µg/mL.

In the case of `CCOc1ccc(Cl)c2c1B(O)OC2CN` (centres unmarked) [AN6426], the IC50 [3] is listed as 90 nM and the MIC [4] is listed as 0.13 µM (≈ 0.0314 µg/mL).

For `O=[N+]([O-])c1ccc(S(=O)(=O)Nc2ccc3c(c2)B(O)OC3)cc1` [PT638], the “reduction in cell numbers over 8 h” value ([5]; 1 times the MIC) was 1.8 log10 cfu/mL, the “reduction in cell numbers over 8 h” value ([5]; 4 times the MIC) was 2.2 log10 cfu/mL and the “reduction in cell numbers over 8 h” value ([5]; 16 times the MIC) was 2.7 log10 cfu/mL. For the same compound, the “type of antibacterial activity in time-kill” value ([5]; over the course of 8 h) was “bacteriostatic”, the “MIC against S. aureus” value [6] was under 0.2 µg/mL and the IC50 [7] was over 100000 nM. The “IC50 (saLeuRS aminoacylation)” value ([7]; 7 nM saLeuRS, 20 min pre-incubation, triplicate) was “did not inhibit saLeuRS”, the IC50 [8] was over 200000 nM and the MIC [9] was at least 3.12 µg/mL. The CC50 at 24 h [10] was at least 100 µg/mL, the “duration of the post-antibiotic effect” value ([11]; 0.25 × MIC) was 0.2 h and the “duration of the post-antibiotic effect” value ([11]; 4 × MIC) was 1.5 h. For the same compound, the MIC shift ([12]; mutant strain 1, D343Y saLeuRS) was 16-fold, the MIC shift ([12]; mutant strain 2, G303S saLeuRS) was 8-fold and the MIC shift ([12]; mutant strain 3, F233I saLeuRS) was 8-fold. For the same compound, the “MIC of resistant colonies relative to parent strain” value ([12]; three colonies picked) was “at least 8 times”.

With `Nc1ccc(S(=O)(=O)Nc2ccc3c(c2)B(O)OC3)cc1` [PT662] the “fold increase in MIC relative to PT638” value ([13]; MRSA ATCC BAA-1762) was 8 fold, the “MIC MRSA” value ([13]; MRSA ATCC BAA-1762, broth microdilution) was 3.1 µg/mL and 3.125 µg/mL and the “Cytotoxicity Vero cells (IC50)” value [14] was at least 100 µg/mL.
